Laboratory results as given in patent publication US20260070902A1, “SULFONYL DERIVATIVES AS CCR6 INHIBITORS” (Hoffmann-La Roche Inc., priority 2022, published 2026).

Experiments:
[1] = target: T1, human CCR6 (Homo sapiens, UniProt P51684); assay: CHO-K1 CCR6 chemotaxis assay towards CCL20; format: cell-based; conditions: relative -Log IC50; CHO-K1 cells overexpressing human CCR6; migration towards 100 ng/ml CCL20; 4 h
T1 sequence (P51684 1-374): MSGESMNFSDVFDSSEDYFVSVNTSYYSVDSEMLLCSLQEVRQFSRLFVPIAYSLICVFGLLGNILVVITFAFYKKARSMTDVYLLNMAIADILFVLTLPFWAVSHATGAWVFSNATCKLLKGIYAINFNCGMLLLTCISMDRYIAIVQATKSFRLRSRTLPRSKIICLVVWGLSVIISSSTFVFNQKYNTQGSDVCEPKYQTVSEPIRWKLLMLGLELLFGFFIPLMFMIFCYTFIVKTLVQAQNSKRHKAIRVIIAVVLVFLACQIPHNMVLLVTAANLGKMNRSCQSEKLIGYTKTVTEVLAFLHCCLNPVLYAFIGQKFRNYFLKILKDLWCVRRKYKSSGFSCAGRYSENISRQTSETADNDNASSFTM
Excerpt: CHO-K1 CCR6 Chemotaxis Assay Towards CCL20
Cells overexpressing human CCR6 were used in the chemotaxis assay (DiscoverX, cAMP Hunter™ CHO-K1 CCR6 Gi Cell Line). Growth medium of these cells consisted of DMEM/F12, non-essential Amino acids (1×NEAA, Gibco 11140050), 10% FBS and 1× pen/strep (Gibco 15140). For the chemotaxis assay, Corning Transwell plates were used with a pore size of 8 m (Corning 351164). Cells were harvested using trypsin and diluted to 4*10^6 cells/ml in chemotaxis medium (DMEM, 0.25% BSA, pen/strep). Compounds were four-fold serially diluted in DMSO. Further dilutions were made in chemotaxis medium. Cells were incubated with test compounds for 30 min at 37° C. prior to initiation of the assay (2*10^6 cells/ml). Final DMSO concentration in the assay was 0.2%. Wells of the Transwell plates were filled with 200 μl chemotaxis medium containing 100 ng/ml CCL20 (R&D systems 360-MP). 50 μl of the cell/compound suspension was added to the inserts of the Transwell plates (100,000 cells/insert). The Transwell plates were placed in an incubator at 37° C., 5% CO2 for 4 h. After 4 h, the number of migrated cells was quantified using CellTiter Glo (Promega). Percentage inhibition values were calculated based on the low and high signal obtained with 0.2% DMSO in chemotaxis medium without and with CCL20, respectively. The relative −Log IC50 was determined with GraphPad Prism 9 using a four-parameter dose-response model.

[2] = target: T1, human CCR6; assay: Human CCR6-CRE reporter assay; format: cell-based; parameters: The second construct contained the open reading frame of human CCR6 in the pUNO1 backbone; host or cells: 293FT cells; conditions: relative -Log IC50; 293FT cells transfected with human CCR6 and CRE-luciferase reporter; 6 μM Forskolin, 6 nM CCL20; 5 h
In short: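 293FT cells transiently co-transfected with human CCR6 and a CRE-luc2P reporter, used 48 h later. Compounds incubated with cells in medium containing 6 μM Forskolin and 6 nM CCL20 (assay-medium levels), 0.1% DMSO final, 5 h at 37° C; luminescence read, relative −Log IC50 from four-parameter fit.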

Compound | IC50 [1] [nM] | IC50 [2] [nM]
NC(=O)c1cc(-c2ccc(S(=O)(=O)N3CC[C@H](Nc4ccc(S(F)(F)(F)(F)F)cc4)[C@@H](F)C3)cc2)ccn1 (stereo in doubt) [Example 83, 4-(4-{[(3S,4S)-3-fluoro-4-{[4-(pentafluoro-λ^6-sulfanyl)phenyl]Amino}piperidin-1-yl]sulfonyl}phenyl)pyridine-2-carboxamide] | 50.1 | 316
CNC(=O)c1ccc(-c2ccc(S(=O)(=O)[C@H]3CC[C@H](Nc4ccc(S(F)(F)(F)(F)F)cc4)CC3)cc2)nc1 [Example 47, N-methyl-6-(4-{[trans-4-{[4-(pentafluoro-λ^6-sulfanyl)phenyl]Amino}cyclohexyl]sulfonyl}phenyl)pyridine-3-carboxamide] | 794 | 63.1
O=C1Cc2cc(-c3ccc(S(=O)(=O)[C@H]4CC[C@H](Nc5ccc(S(F)(F)(F)(F)F)cc5)CC4)cc3)ccc2N1 [Example 14, 5-(4-{[trans-4-{[4-(pentafluoro-λ^6-sulfanyl)phenyl]Amino}cyclohexyl]sulfonyl}phenyl)-2,3-dihydro-1H-indol-2-one] | 1260 | 200
CNC(=O)c1ccc(-c2ccc(S(=O)(=O)N3CCC(Nc4ccc(S(F)(F)(F)(F)F)cc4)CC3)cc2)cc1F [Example 139, 3-fluoro-N-methyl-4′-[(4-{[4-(pentafluoro-λ^6-sulfanyl)phenyl]amino}piperidin-1-yl)sulfonyl]-[1,1′-biphenyl]-4-carboxamide] | 10 | 63.1
O=S(=O)(c1ccc(-c2ccc3nnc(C4CNC4)n3c2)cc1)N1CCC(Nc2ccc(S(F)(F)(F)(F)F)cc2)CC1 [Example 167, 1-{4-[3-(azetidin-3-yl)-[1,2,4]triazolo[4,3-a]pyridin-6-yl]benzenesulfonyl}-N-[4-(pentafluoro-λ^6-sulfanyl)phenyl]piperidin-4-amine] | 251 | 251

The remaining lines, values ahead:

IC50 [1] [nM] | IC50 [2] [nM] | Compound
79.4 | 126 | O=S(=O)(c1ccc(-c2ccc3nccn3c2)cc1)N1CCC(Nc2ccc(S(F)(F)(F)(F)F)cc2)CC1 [Example 1, 1-(4-{imidazo[1,2-a]pyridin-6-yl}benzenesulfonyl)-N-[4-(pentafluoro-λ^6-sulfanyl)phenyl]piperidin-4-amine]
1580 | 200 | CN(C)C(=O)c1ccc(-c2ccc(S(=N)(=O)[C@H]3CC[C@H](Nc4ccc(S(F)(F)(F)(F)F)cc4)CC3)cc2)cc1 (stereo partly drawn) [Example 92, N,N-dimethyl-4′-{[trans-4-{[4-(pentafluoro-λ^6-sulfanyl)phenyl]Amino}cyclohexyl]sulfonimidoyl}-[1,1′-biphenyl]-4-carboxamide]
7.94 | 63.1 | N#Cc1cnc2ccc(-c3ccc(S(=O)(=O)[C@H]4CC[C@H](Nc5ccc(S(F)(F)(F)(F)F)cc5)CC4)cc3)cn12 [Example 33, 6-(4-{[trans-4-{[4-(pentafluoro-λ^6-sulfanyl)phenyl]Amino}cyclohexyl]sulfonyl}phenyl)imidazo[1,2-a]pyridine-3-carbonitrile]
251 | 316 | N#Cc1c[nH]c2ccc(-c3ccc(S(=N)(=O)[C@H]4CC[C@H](Nc5ccc(S(F)(F)(F)(F)F)cc5)CC4)cc3)cc12 (single isomer, unassigned; (-)) [Example 127, (−)-5-(4-{[trans-4-{[4-(pentafluoro-λ^6-sulfanyl)phenyl]Amino}cyclohexyl]sulfonimidoyl}phenyl)-1H-indole-3-carbonitrile]
39.8 | 200 | O=S(=O)(c1ccc(-c2cc3cn[nH]c3cn2)cc1)[C@H]1CC[C@H](Nc2ccc(S(F)(F)(F)(F)F)cc2)CC1 [Example 147, 4-(pentafluoro-λ^6-sulfanyl)-N-[trans-4-(4-{1H-pyrazolo[3,4-c]pyridin-5-yl}benzenesulfonyl)cyclohexyl]aniline]
